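In this assay, cells in 96-well plates receive the compound at five concentrations for 48 hours. Endpoints are linearly interpolated between the surrounding concentrations. At the GI50, growth is halved.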 Activity calls are given as the source filed them. No stated cut-off is given here; in the data, active = GI50 up to about 1.1 µM and inactive = higher.
Tests used:
Assay in all cases: inhibition of tumour cell growth, NCI panel, 48 h
[1] = system: HOP-18
[2] = system: LXFL 529
[3] = system: M19-MEL
[4] = system: XF498
[5] = system: RXF 631
[6] = system: BT-549
[7] = system: DU-145
[8] = system: Hs-578T
[9] = system: MDA-N

Measured: GI50

CCOC(=O)N1CCc2cc(OC)c(OC)cc2/C1=C\c1ccc(OC)c(OC)c1
inactive: [1] 29.5 µM | [2] 29.5 µM | [3] 26.1 µM | [4] > 10 µM

CC(=O)OC1COC(n2c(=S)n(-c3ccccc3)c(=O)c3cc(Br)ccc32)C(OC(C)=O)C1OC(C)=O (centres undefined)
inactive: [1] > 100 µM | [2] 27 µM | [3] 53.6 µM | [4] 19.3 µM

CC1C=C(OC(=O)c2ccccc2)C(=O)C(n2cc(F)c(=O)n(C(=O)c3ccccc3)c2=O)O1 (centres undefined)
inactive: [1] > 100 µM | [3] 39.3 µM | [5] 52 µM | [4] 21.8 µM

COc1ccccc1C(=O)Nc1ccc(Cl)c(C(=O)OC(C)C)c1
inactive: [6] 64.9 µM | [7] 49.2 µM | [1] > 100 µM | [8] > 100 µM | [3] 30.8 µM | [9] 31.1 µM | [5] 41.1 µM | [4] 21.9 µM

CCOC(=O)NN1C(=O)C(=P(c2ccccc2)(c2ccccc2)c2ccccc2)C(C(=O)OC)=C1C
inactive: [1] > 100 µM | [2] > 100 µM | [3] > 100 µM | [4] > 100 µM

CC1NOC(=O)C1/N=N/c1ccccc1Cl (centres undefined)
inactive: [1] 35 µM | [2] 45.5 µM | [3] 23 µM | [5] 37.1 µM | [4] 27.9 µM

CN(NC1OC(CO)C(O)C(O)C1O)c1ccccc1 (centres undefined)
inactive: [1] > 100 µM | [2] > 100 µM | [3] > 100 µM | [4] 16.4 µM

COC(OC)c1cccc2c1C(=O)CCC1(O)c3ccccc3C1C2 (centres undefined)
inactive: [1] 91.6 µM | [2] 86.3 µM | [3] > 100 µM | [4] > 100 µM

CCCCCCCCCCOC(=O)c1cc[n+](C)cc1
inactive: [1] 42.7 µM | [2] 16.3 µM | [3] 17.8 µM | [4] 17.5 µM

O=c1c2cc(Br)ccc2nc(CNc2ccccc2)n1-c1ccccc1
inactive: [1] 36.7 µM | [2] 14.9 µM | [3] 13.9 µM | [4] 15.7 µM

CC1(O)C(C)(O)C(C)(O)C1(C)O (centres undefined)
inactive: [1] > 100 µM | [2] > 100 µM | [3] > 100 µM | [4] > 100 µM

CCCCN(CCCC)C(=O)C(=O)CC(=O)/C=C/c1ccccc1
inactive: [1] > 100 µM | [2] > 100 µM | [3] > 100 µM | [5] > 100 µM

NCc1cccc(O)c1O
inactive: [1] > 100 µM | [2] > 100 µM | [3] 48.9 µM | [5] > 100 µM | [4] > 100 µM

C[C@]12CCC3c4ccc(OC(=O)c5ccccc5)cc4CC[C@H]3C1CC[C@@H]2OC(=O)C12OC1CCC2=O (some centres undefined)
inactive: [1] 5.71 µM | [2] 1.91 µM | [3] 5.96 µM | [4] 5.82 µM

CCCCCCCCCCCc1noc2c1C(=O)C(O)CC2 (centres undefined)
inactive: [2] 16.6 µM | [5] 17.6 µM | [4] 13.6 µM

COc1ccc(C2=Nc3ccccc3SC(C)C2)cc1OC (centres undefined)
inactive: [1] > 10 µM | [2] 17.4 µM | [5] 42.2 µM | [4] 18.2 µM

O=C(/C(=N/Nc1ccccc1)c1ccc([N+](=O)[O-])cc1)c1ccc([N+](=O)[O-])cc1
inactive: [1] > 100 µM | [2] > 100 µM | [3] > 100 µM | [4] > 100 µM

CCCCNC(=O)OCC(COc1ccccc1OC)OC(=O)NCCCC (centres undefined)
inactive: [1] 39.5 µM | [2] > 100 µM | [3] > 100 µM | [5] > 100 µM | [4] > 100 µM

COc1ccc2c(C3(O)CCNCC3)c[nH]c2c1
inactive: [1] > 100 µM | [2] > 100 µM | [3] > 100 µM | [5] > 100 µM

CCOc1ccc(NC(=O)/C(=C\c2ccc(C)cc2)C(C)=O)cc1
inactive: [1] > 100 µM | [2] > 100 µM | [3] > 100 µM | [5] > 100 µM

Cc1c[n+]2c3ccccc3c3ccccc3c2s1.[O-][Cl+3]([O-])([O-])[O-]
inactive: [1] 40.2 µM | [2] 3.16 µM | [3] 4.2 µM | [4] 3.19 µM

Cc1cccc(NC(=O)/C=C/c2ccc(N(CCC#N)CCC#N)cc2C)c1
inactive: [2] 23.4 µM | [3] > 100 µM | [5] > 100 µM | [4] > 100 µM

CC(C)C.C[N+](C)(C)C.OC(c1ccccc1)(C(F)(F)F)C(F)(F)F.OC(c1ccccc1)(C(F)(F)F)C(F)(F)F.[SiH3-]
inactive: [1] 4.16 µM | [2] 4.19 µM | [3] 12.2 µM | [5] 2.58 µM | [4] 11.9 µM
